Data taken from patent publication US5118670A, “Process and composition for increasing brain dopamine release” (Massachusetts Institute of Technology, priority 1988, dated 1992).

Tested on: striatal dopamine release
Assay: Effect of TRH and tyrosine on striatal dopamine release (in vivo microdialysis)
Parameters: species or system rats
Text: Groups of 7 male albino rats were implanted with a jugular venous catheter (for administering the drugs and withdrawing blood samples), and a microdialysis probe into the corpus striatum (for sampling fluid in equilibrium with intrasynaptic fluids).
Animals were placed under deep urethane anesthesia for the duration of the experiment. Each animal received 10 micrograms of TRH or a saline placebo, and/or tyrosine at a dose of 20 micrograms per kilogram, or a saline placebo.
Microdialysis samples (23 microliters of artificial cerebrospinal fluid per sample) were then collected at 15 minute intervals for 150 minutes, and rapidly assayed for dopamine, its chief metabolites (DOPAC and HVA), serotonin, and the serotonin metabolite, 5-HIAA.

Compound | other compounds measured in microdialysate (DOPAC, HVA, serotonin, 5-HIAA) (TRH 10 micrograms alone, anesthetized rats, striatal microdialysis) | increase (from the baseline) in dopamine release (TRH 10 micrograms alone, via jugular venous catheter, urethane-anesthetized male albino rats, corpus striatum microdialysis, after two hours) [%] | effect on dopamine release (higher dose of TRH (50 micrograms) without tyrosine, anesthetized rats, striatal microdialysis) [%] | increase in dopamine release (tyrosine alone, 20 micrograms per kilogram, via jugular venous catheter, anesthetized rats, striatal microdialysis, after two hours)
NC(=O)[C@@H]1CCCN1C(=O)[C@H](Cc1c[nH]cn1)NC(=O)[C@@H]1CCC(=O)N1 [TRH, L-pyroglutamyl-L-histidyl-L-prolineamide] | stable | 190 | 750 | 
N[C@@H](Cc1ccc(O)cc1)C(=O)O [tyrosine] |  |  |  | about 110%
